These results are taken from ChEMBL document CHEMBL1201862, “PubChem BioAssay data set” (2004).

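The compound was tested at five concentrations on cells cultured in 96-well plates, with a 48-hour exposure period. The concentration for 50% growth inhibition is given as GI50.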 The source made the active and inactive calls. Cut-off read from the data, not from the text of the source: active = GI50 up to about 1.1 µM and inactive = higher. A value given as a limit tells only on which side of the number the result lay.

Some test systems named below: SF-539; HCT-15; SR; RXF 393; UACC-62; A498; HL-60; NCI-H23; UO-31; MDA-MB-231; OVCAR-4; MCF7; SN12C; UACC-257; OVCAR-3; K562; MDA-MB-435; SF-295; DU-145; MDA-N.
What all share (experiment): NCI-60 cell line screen, 48 h

Regarding `N=C(N)N/N=C/c1c(-c2ccc([N+](=O)[O-])cc2)nc2sccn12`, the GI50 was 1.77 µM (inactive) in the assay on SF-539; 10.2 µM with HCT-15; 1.73 µM (inactive) in the assay on SR; 2.55 µM (inactive) with RXF 393; 1.87 µM (inactive) in the assay on UACC-62; 1.73 µM (inactive) with A498. Also, the GI50 in the assay on HL-60 is 2.38 µM (inactive); with NCI-H23, 1.71 µM (inactive); with UO-31, 2.34 µM (inactive); in the assay on MDA-MB-231 it was 1.68 µM (inactive); in the assay on OVCAR-4, 1.46 µM (inactive); with MCF7, 1.42 µM (inactive). Also, the GI50 was 1.77 µM (inactive) with SN12C; 1.93 µM (inactive) with UACC-257; 1.37 µM (inactive) in the assay on OVCAR-3; 0.973 µM (active) in the assay on K562; 1.5 µM (inactive) with MDA-MB-435; 1.39 µM (inactive) in the assay on SF-295. Besides, the GI50 in the assay on DU-145 was 1.82 µM (inactive).
In the case of `C=C(CCC(C)C1CCC2C3=C(C(=O)CC21C)C1(C)CCC(=O)[C@@H](C)C1CC3=O)C(C)C(=O)O` (stereo partly drawn), the GI50 in the assay with SF-539 is > 100 µM (inactive); in the assay on HCT-15 it was 77.8 µM; in the assay on SR, 35.2 µM (inactive); in the assay with RXF 393 it was 18 µM (inactive); with UACC-62 it was 49.5 µM (inactive); in the assay on A498, > 100 µM (inactive). The GI50 was 14.7 µM (inactive) in the assay on HL-60; 38.9 µM (inactive) with NCI-H23; 15.2 µM (inactive) with UO-31; 39.3 µM (inactive) in the assay on MDA-MB-231; 48.1 µM (inactive) with OVCAR-4; > 100 µM (inactive) in the assay with MCF7. Besides, the GI50 in the assay on SN12C was > 100 µM (inactive); in the assay with UACC-257 it was 46.9 µM (inactive); in the assay with OVCAR-3, 60.1 µM (inactive); in the assay with K562, 18.6 µM (inactive); with MDA-MB-435, 65.6 µM (inactive); with SF-295, 53.2 µM (inactive). Besides, in the assay on DU-145, the GI50 was > 100 µM (inactive).
`COc1ccc(OC)c(NC(=O)CCC/C(CC(=O)c2ccc(O)c(OC)c2)=N\Nc2ccc([N+](=O)[O-])cc2)c1`: the GI50 was 57.7 µM (inactive) in the assay with SF-539; above 100 µM in the assay on HCT-15; > 100 µM (inactive) in the assay with SR; 19 µM (inactive) in the assay on RXF 393; 48.8 µM (inactive) in the assay with UACC-62; > 100 µM (inactive) in the assay with A498. The GI50 in the assay on HL-60 was > 100 µM (inactive); in the assay with NCI-H23, 48.1 µM (inactive); in the assay on UO-31, 83 µM (inactive); in the assay with OVCAR-4, > 100 µM (inactive); in the assay on SN12C, > 100 µM (inactive); in the assay with UACC-257, > 100 µM (inactive). In addition, the GI50 in the assay on OVCAR-3 is > 100 µM (inactive); in the assay on K562, 30.1 µM (inactive); in the assay on SF-295, 52.8 µM (inactive).
Take `O=C1c2ccccc2-c2nc(-c3cccnc3)cc3c2c1nc1ccccc13`: the GI50 with SF-539 is > 100 µM (inactive); in the assay with HCT-15, above 100 µM; in the assay with SR it was 11.9 µM (inactive); in the assay on UACC-62, 32.7 µM (inactive); with HL-60 it was 21.2 µM (inactive); with NCI-H23 it was 88.3 µM (inactive). Besides, the GI50 in the assay on UO-31, in the assay with MDA-MB-231, in the assay on OVCAR-4, with MCF7, with SN12C and with UACC-257 was > 100 µM (inactive) in each case. Also, the GI50 with OVCAR-3 was 11.6 µM (inactive); with K562, > 100 µM (inactive); in the assay on MDA-MB-435 it was 18.2 µM (inactive); in the assay on SF-295, 58.3 µM (inactive); in the assay with DU-145, > 100 µM (inactive).
For the compound `CC[C@H](CCCC[C@H]1CC[C@@H]2CC(=O)C[C@H]12)OC`, the GI50 in the assay with SF-539 is > 100 µM (inactive); with SR, 32.9 µM (inactive); with UACC-62, 60 µM (inactive); in the assay with HL-60 it was 24 µM (inactive); in the assay on NCI-H23 it was 35.5 µM (inactive); in the assay on MDA-MB-231, > 100 µM (inactive). Further, the GI50 in the assay on OVCAR-4 was > 100 µM (inactive); in the assay with UACC-257, 43.5 µM (inactive); in the assay with OVCAR-3, 85.3 µM (inactive); with K562 it was 13 µM (inactive); in the assay with MDA-MB-435, > 100 µM (inactive); in the assay on SF-295, 65.9 µM (inactive).
As to `CC12C=CC(C)(C3C(=O)C4C(C(=O)C31)C1(C)C=CC4(C)[S+]1[O-])[S+]2[O-]` (stereo not drawn), the GI50 in the assay on SF-539 was 25.4 µM (inactive); with HCT-15, 87.3 µM; in the assay with RXF 393 it was > 100 µM (inactive); in the assay with UACC-62, 74 µM (inactive); with NCI-H23, > 100 µM (inactive); in the assay on UO-31, > 100 µM (inactive). Further, the GI50 was > 100 µM (inactive) in the assay with MDA-MB-231; 71.9 µM (inactive) in the assay with UACC-257; > 100 µM (inactive) in the assay with OVCAR-3; > 100 µM (inactive) in the assay with MDA-N; > 100 µM (inactive) with SF-295; > 100 µM (inactive) with DU-145.
`CC1(C)N=C(N)N=C(N)N1c1ccc(OCC(=O)Nc2cccc(S(=O)(=O)F)c2)c(Cl)c1`: the GI50 in the assay on SF-539 was 13.2 µM (inactive); in the assay on HCT-15, 9.75 µM; in the assay on SR it was 2.85 µM (inactive); with UACC-62 it was 0.676 µM (active); in the assay with HL-60, 3.75 µM (inactive); with NCI-H23, 4.95 µM (inactive). Also, the GI50 in the assay on UO-31 was 78.5 µM (inactive); in the assay with MDA-MB-231, > 31.6 µM (inactive); with OVCAR-4 it was > 100 µM (inactive); in the assay with MCF7, 6.03 µM (inactive); in the assay with SN12C it was 8 µM (inactive); in the assay with UACC-257, 2.98 µM (inactive). Further, the GI50 in the assay with OVCAR-3 is 18.5 µM (inactive); in the assay with K562, 1.66 µM (inactive); with MDA-MB-435, 4.52 µM (inactive); with SF-295, 10.2 µM (inactive); in the assay on DU-145, > 25.1 µM (inactive).
Consider `O=c1ccc(-c2ccc(-n3ccnc3)cc2)nn1CCO`, for which the GI50 with SF-539 was > 100 µM (inactive); in the assay with HCT-15 it was above 100 µM; in the assay with SR, > 100 µM (inactive); in the assay with RXF 393, > 100 µM (inactive); in the assay on UACC-62 it was > 100 µM (inactive); in the assay on A498, > 100 µM (inactive). The GI50 in the assay on HL-60 is > 100 µM (inactive); in the assay with NCI-H23 it was > 100 µM (inactive); with UO-31 it was > 100 µM (inactive); in the assay on OVCAR-4, > 100 µM (inactive); with MCF7 it was 89.3 µM (inactive); in the assay on SN12C, > 100 µM (inactive). The GI50 with UACC-257, with OVCAR-3, with MDA-N, in the assay with MDA-MB-435, in the assay with SF-295 and in the assay with DU-145 was > 100 µM (inactive) each time.
Consider `CNc1ccc2c(c1)Cc1ccccc1-2`, for which the GI50 in the assay on SF-539 is 32.4 µM (inactive); in the assay on HCT-15 it was 15.3 µM; in the assay with SR, 27 µM (inactive); with RXF 393, 34.8 µM (inactive); with UACC-62 it was 26.8 µM (inactive); in the assay on A498, 20 µM (inactive). For the same compound, the GI50 is 20.3 µM (inactive) in the assay on HL-60; 75.2 µM (inactive) with NCI-H23; 31.1 µM (inactive) in the assay on UO-31; 55.8 µM (inactive) in the assay on MDA-MB-231; 26.5 µM (inactive) with OVCAR-4; 44.6 µM (inactive) in the assay on MCF7. For the same compound, the GI50 in the assay on SN12C is 43.8 µM (inactive); with UACC-257, 61.1 µM (inactive); with OVCAR-3, 26.8 µM (inactive); with K562, 31.1 µM (inactive); in the assay on MDA-MB-435, 28.3 µM (inactive); in the assay with SF-295, 47.2 µM (inactive). The GI50 in the assay with DU-145 was 31.9 µM (inactive).
